Assays:
Assay in all cases: PTP IC50 assay, pNPP or FDP as substrate
Type in all cases: biochemical
PTP BETA = target: T1, PTP BETA (Homo sapiens, UniProt P23467); conditions: pNPP or FDP as substrate, 25° C.; read-out: PTP IC50 Beta
T1 construct: The catalytic domain was amplified using the following oligonucleotides; made in house; host or cells: E. coli BL-21 (pGEX 6P-1)
Experimental: (§1) The following in vitro assay procedure is preferred to determine the level of activity and effect of the different compounds of the present invention on one or more of the PTPs. Similar assays can be designed along the same lines for any PTP using techniques well known in the art.
(§2) The catalytic assays described herein are performed in a 96-well format. The general procedure begins with the determination of PTP optimal pH using a three-component buffer system that minimizes ionic strength variations across a wide range of buffer pH. Next, the Michaelis-Menten constant, or Km, is determined for each specific substrate-PTP system. This Km value is subsequently used as the substrate reaction concentration for compound screening. Finally, the test PTP is exposed to varying concentrations of compound for fifteen minutes and allowed to react with substrate for ten minutes. The results are plotted as percent inhibition versus compound concentration and the IC50 interpolated from the plot.
(§3) All assays were performed using pNPP or FDP as substrate. The optimum pH was determined for each PTP used.
(§4) PTPase activity was assayed at 25° C. in a 100-μl reaction mixture containing an appropriate concentration of pNPP or FDP as substrate. The reaction was initiated by addition of the PTP and quenched after 10 min by addition of 50 μl of IN NaOH. The non-enzymatic hydrolysis of the substrate was corrected by measuring the control without the addition of the enzyme. The amount of p-nitrophenol produced was determined from the absorbance at 410 nm. To determine the kinetic parameter, Km, the initial velocities were measured at various substrate concentrations and the data were fitted to the Michaelis equation where velocity=(Vmax*[S])/(Km+[S]), and [S]=substrate reaction concentration.
(§5) The effect of the compounds on PTP was evaluated at 25° C. using pNPP or FDP as substrate. PTP was pre-incubated for fifteen minutes with various concentrations of compound. Substrate was then added at a fixed concentration (usually equal to the Km previously calculated). After 10 minutes, NaOH was added to stop the reaction. The hydrolysis of pNPP was followed at 410 nm on the Biotek Powerwave 200 microplate scanning spectrophotometer. The percent inhibition was calculated as follows: Percent Inhibition=[(control signal−compound signal)/control signal] ×100%. The IC50 was then determined by interpolation of a percent inhibition versus compound concentration plot.
(§6) Plasmids designed for bacterial GST-PTP fusion protein expression were derived by insertion of PCR-generated human PTP fragments into pGEX vectors (Pharmacia Biotech). Several of these constructs were then used to subclone phosphatases into pFastBac-1for expression in Sf-9 insect cells. Oligonucleotides used for the initial amplification of PTP genes are shown below. The cDNAs were prepared using the Gilbo BRL superscript preamplification system on RNAs purchased from Clontech.
The PTP Beta cDNA used has been described earlier (Levy et al., 1993, J. Biol. Chem, 268:10573-10581). The catalytic domain was amplified using the following oligonucleotides: 5′oligo: 5′-[…]-3′ (SEQ ID NO: 16) 3′oligo: 5′-[…]-3′ (SEQ ID NO: 17) and subsequently cloned into the Eco RI/Xho I sites of pGEX 6P-1.

PTP EPSILON = target: T2, PTP EPSILON (Homo sapiens, UniProt P23469); conditions: pNPP or FDP as substrate, 25° C.; read-out: PTP IC50 Epilson
T2 construct: made in house; host or cells: Sf-9 insect cells (pFastBac-G2T); a pGEX 6P-1 construct also existed
T2 sequence (P23469 80-393 limits assumed): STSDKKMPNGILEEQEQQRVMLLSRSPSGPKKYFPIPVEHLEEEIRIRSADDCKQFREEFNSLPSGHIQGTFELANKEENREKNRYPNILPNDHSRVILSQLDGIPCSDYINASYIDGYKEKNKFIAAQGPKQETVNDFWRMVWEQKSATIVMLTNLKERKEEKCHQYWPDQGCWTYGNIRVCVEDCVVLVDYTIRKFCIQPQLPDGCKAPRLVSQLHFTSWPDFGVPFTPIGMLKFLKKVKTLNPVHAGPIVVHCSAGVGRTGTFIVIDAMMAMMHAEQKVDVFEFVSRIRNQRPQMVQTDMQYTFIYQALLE
Experimental: as §1, §2, §3, §4, §5, §6
The PTPepsilon cDNA was amplified from human placenta single-strand cDNA (Clontech RNA) using the following oligonucleotides: 5′oligo: 5′-[…]-3′ (SEQ ID NO: 6) 3′oligo: 5′-[…]-3′ (SEQ ID NO: 7) After cloning this PCR product into the Bam HI/Xho I sites of pGEX 6P-1, this phosphatase was subcloned using the same restriction sites in pFastBac-G2T.

PTP 1B = target: T3, PTP 1B (Homo sapiens, UniProt P18031); conditions: pNPP or FDP as substrate, 25° C.; read-out: PTP IC50 1B
T3 construct: made in house; host or cells: Sf-9 insect cells (pFastBac-G2T)
T3 sequence (P18031 1-435): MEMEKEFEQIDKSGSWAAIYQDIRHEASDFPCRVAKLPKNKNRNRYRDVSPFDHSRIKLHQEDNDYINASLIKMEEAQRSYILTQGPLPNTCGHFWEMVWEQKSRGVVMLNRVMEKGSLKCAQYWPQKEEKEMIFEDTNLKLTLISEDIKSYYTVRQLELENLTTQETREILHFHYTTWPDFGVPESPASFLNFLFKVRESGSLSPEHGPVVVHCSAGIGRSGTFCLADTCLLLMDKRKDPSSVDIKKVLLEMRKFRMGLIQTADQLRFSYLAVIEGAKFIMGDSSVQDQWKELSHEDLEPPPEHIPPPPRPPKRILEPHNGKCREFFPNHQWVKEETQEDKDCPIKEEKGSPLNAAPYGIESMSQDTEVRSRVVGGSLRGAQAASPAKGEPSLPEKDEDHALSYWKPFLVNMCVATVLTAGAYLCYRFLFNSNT
Experimental: as §1, §2, §3, §4, §5, §6
The PTP1b cDNA was amplified from human placenta single strand cDNA (Clontech RNA) using the following oligonucleotides: 5′oligo: 5′-[…] (SEQ ID NO: 4) 3′oligo: 5′-[…] (SEQ ID NO: 5) It was subsequently ligated into pFasBac G2TBamH1Xba-1 sites.

PTP MU = target: T4, PTP MU (Homo sapiens, UniProt P28827); conditions: pNPP or FDP as substrate, 25° C.; read-out: PTP IC50 Mu
T4 construct: made in house; host or cells: E. coli BL-21 (pGEX 6P-1)
T4 sequence (P28827 831-1186 limits assumed): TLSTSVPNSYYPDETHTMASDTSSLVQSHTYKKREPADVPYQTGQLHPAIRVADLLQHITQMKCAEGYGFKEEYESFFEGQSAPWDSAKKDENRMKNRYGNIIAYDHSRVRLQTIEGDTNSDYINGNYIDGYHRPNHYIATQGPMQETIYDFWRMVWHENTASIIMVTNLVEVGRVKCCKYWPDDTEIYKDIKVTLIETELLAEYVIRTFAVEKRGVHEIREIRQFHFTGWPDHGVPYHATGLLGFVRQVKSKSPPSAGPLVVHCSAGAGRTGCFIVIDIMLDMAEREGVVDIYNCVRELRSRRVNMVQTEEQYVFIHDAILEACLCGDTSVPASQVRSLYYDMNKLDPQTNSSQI
Experimental: as §1, §2, §3, §4, §5, §6
The PTP Mu cDNA was amplified from a human lung cDNA library (Clontech) using the following oligonucleotides; 5′oligo: 5′-[…]-3′ (SEQ ID NO: 18) 3′oligo: 5′-[…]-3′ (SEQ ID NO: 19) It was subsequently ligated into the Eco RI/Xho I sites of pGEX 6P-1.

T1 sequence (P23467 1653-1997): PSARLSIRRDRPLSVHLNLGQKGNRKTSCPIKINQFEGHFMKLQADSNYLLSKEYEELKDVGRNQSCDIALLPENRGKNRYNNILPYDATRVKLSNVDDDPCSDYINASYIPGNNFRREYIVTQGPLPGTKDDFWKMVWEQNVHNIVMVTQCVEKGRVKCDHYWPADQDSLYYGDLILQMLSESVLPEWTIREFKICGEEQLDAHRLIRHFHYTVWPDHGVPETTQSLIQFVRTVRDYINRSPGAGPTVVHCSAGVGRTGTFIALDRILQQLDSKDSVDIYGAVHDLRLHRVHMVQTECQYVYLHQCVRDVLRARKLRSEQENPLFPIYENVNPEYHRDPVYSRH

| Structure (SMILES) | IC50 (PTP BETA) [µM] | IC50 (PTP EPSILON) [µM] | IC50 (PTP 1B) [µM] | IC50 (PTP MU) [µM] |
| --- | --- | --- | --- | --- |
| O=C(O)c1cc(Oc2ccc(S(=O)(=O)C(F)(F)F)cc2)cc(Oc2ccc(S(=O)(=O)C(F)(F)F)cc2)c1 [Example 31, 3,5-Bis-(4-trifluoromethanesulfonyl-phenoxy)-benzoic acid] | 4.5 | 1.8 | 6.2 | 8.7 |
| COC(=O)c1c(Oc2ccc(S(=O)(=O)C(F)(F)F)cc2[N+](=O)[O-])cc(C)cc1Oc1ccc(S(=O)(=O)C(F)(F)F)cc1[N+](=O)[O-] [Example 13, 4-Methyl-2,6-bis-(2-nitro-4-trifluoromethanesulfonyl-phenoxy)-benzoic acid methyl ester] | 15.1 | 80.4 | > 100 | 76 |
| O=C(O)c1ccc(Oc2cccc(Oc3ccc(S(=O)(=O)C(F)(F)F)cc3)c2)cc1 [Example 18, 4-[3-(4-Trifluoromethanesulfonyl-phenoxy)-phenoxy]-benzoic acid] | 13.5 | 0.77 | 16.4 | 21.6 |
| CCOC(=O)COc1ccc(S(=O)(=O)c2ccc(Oc3ccc(S(=O)(=O)C(F)(F)F)cc3[N+](=O)[O-])cc2)cc1 [Example 17, {4-[4-(2-Nitro-4-trifluoromethanesulfonyl-phenoxy)-benzenesulfonyl]-phenoxy}-acetic acid ethyl ester] | 26 | > 100 | > 100 | > 100 |
| O=C(c1ccccc1)N(Cc1ccc(S(=O)(=O)C(F)(F)F)cc1)Cc1ccc(S(=O)(=O)C(F)(F)F)cc1 [Example 3, N,N-Bis(4-trifluoromethylsulfonylbenzyl)benzamide] | 17.2 | 28.1 | 44.9 | > 100 |
| COC(=O)Cc1cc(Oc2ccc(S(=O)(=O)C(F)(F)F)cc2[N+](=O)[O-])cc(Oc2ccc(S(=O)(=O)C(F)(F)F)cc2[N+](=O)[O-])c1 [Example 10, [3,5-Bis-(2-nitro-4-trifluoromethanesulfonyl-phenoxy)-phenyl]-acetic acid methyl ester] | 20.5 | 60.8 | > 100 | > 100 |
| O=[N+]([O-])c1cc(S(=O)(=O)C(F)(F)F)ccc1SSc1ccc(S(=O)(=O)C(F)(F)F)cc1[N+](=O)[O-] [Example 8, Bis-(2-nitro-4-trifluoromethylsulfonylphenyl) disulfide] | 26.5 | 53.7 | 46.8 | > 100 |
| O=S(=O)(c1ccc(CCc2ccc(S(=O)(=O)C(F)(F)F)cc2)cc1)C(F)(F)F [Example 4, 1,2-Bis(4-trifluoromethylsulfonylphenyl)ethane] | 6.8 | 16.6 | > 100 | > 100 |
| O=C(O)c1ccc(Oc2cccc(Oc3ccc(S(=O)(=O)C(F)(F)F)cc3[N+](=O)[O-])c2)cc1 [Example 15, 4-[3-(2-Nitro-4-trifluoromethanesulfonyl-phenoxy)-phenoxy]-benzoic acid] | 10.3 | 10 | 15.7 | 15.5 |
| O=C(NCc1ccc(S(=O)(=O)C(F)(F)F)cc1)c1ccccc1 [Example 6, N-(4-Trifluoromethylsulfonylbenzyl)benzamide] | > 100 | > 100 | > 100 | > 100 |
| O=C(Cc1ccccc1CC(=O)Nc1cccc(S(=O)(=O)C(F)(F)F)c1)Nc1cccc(S(=O)(=O)C(F)(F)F)c1 [Example 20, N-(3-Trifluoromethanesulfonyl-phenyl)-2-{2-[(3-trifluoromethanesulfonyl-phenylcarbamoyl)-methyl]-phenyl}-acetamide] | 8.7 | 7.5 | 43.3 | 37.9 |
| CC(C)(COc1ccc(NS(=O)(=O)C(F)(F)F)cc1)COc1ccc(NS(=O)(=O)C(F)(F)F)cc1 [Example 68, 1,3-Bis(4-trifluoromethylsulfonamidophenoxy)-2,2-dimethylpropane] | 15.2 | 37 | 44.6 | 42 |
| COC(=O)c1cc(Oc2ccc(S(=O)(=O)C(F)(F)F)cc2[N+](=O)[O-])n(-c2cc(C(F)(F)F)cc(C(F)(F)F)c2)n1 [Example 16, 1-(3,5-Bis-trifluoromethyl-phenyl)-5-(2-nitro-4-trifluoromethanesulfonyl-phenoxy)-1H-pyrazole-3-carboxylic acid methyl ester] | 9.6 | 64.7 | > 100 | > 100 |
| O=S(=O)(Nc1ccc(OCCCOc2ccc(NS(=O)(=O)C(F)(F)F)cc2)cc1)C(F)(F)F [Example 69, 1,3-Bis(4-trifluoromethylsulfonamidophenoxy)propane] | > 100 | 40.7 | 78.9 | 37 |
| O=C(O)Cc1ccc(CC(=O)Nc2cccc(S(=O)(=O)C(F)(F)F)c2)cc1 [Example 29, {4-[(3-Trifluoromethanesulfonyl-phenylcarbamoyl)-methyl]-phenyl}-acetic acid] | 6.4 | 26.1 | 35.4 | > 100 |
| CC(C)(c1ccc(NS(=O)(=O)C(F)(F)F)cc1)c1ccc(C(C)(C)c2ccc(NS(=O)(=O)C(F)(F)F)cc2)cc1 [Example 76] | 6.4 | 8.4 | 2.5 | 6.7 |
| O=[N+]([O-])c1cc(S(=O)(=O)C(F)(F)F)ccc1OC1CCC(Oc2ccc(S(=O)(=O)C(F)(F)F)cc2[N+](=O)[O-])C1 (mixture of isomers) [Example 12, 1,3-Bis-(2-nitro-4-trifluoromethanesulfonyl-phenoxy)-cyclopentane] | 17.9 | > 100 | > 100 | > 100 |
| COC(=O)c1cc(Oc2ccc(S(=O)(=O)C(F)(F)F)cc2)cc(Oc2ccc(S(=O)(=O)C(F)(F)F)cc2)c1 [Example 9, 3,5-Bis-(4-trifluoromethanesulfonyl-phenoxy)-benzoic acid methyl ester] | 45.6 | > 100 | > 100 | > 100 |
